The source of these data is patent publication US12297246B2, “Interleukin-15 activity antagonist peptide” (CENTRO DE INGENIERÍA GENÉTICA Y BIOTECNOLOGÍA, priority 2017, dated 2025).

“Also recorded” adds a separate entry of the source. Where a SMILES comes first, the peptide text is derived from it. Bridges are numbered along the chain shown (N, C = ends). Roman numbers before positions name the chains, in order. Where no end group is shown, it is not given here. [ ]: non-standard residue; d: D form.

For one series, the system named is CTLL-2 cells. The series can be described thus: IL-15-induced CTLL-2 cell proliferation assay. It counts as cell-based. The following applies: for IC50: fixed IL-15 concentration of 300 μg/mL, colorimetric assay. From the text:
The proliferation of the CTLL-2 cell line is dependent on IL-15. Molecular entities that bind to IL-15 or its receptor subunit inhibit the proliferation of this cell line. To evaluate the antagonist capacity of peptides designed and obtained in the present invention, was followed the procedure described by Santos et al in 2012. Peptide 1 was included in all assays.
The realization of this colorimetric assay allowed calculating the IC50 value of each peptide, for a fixed IL-15 concentration of 300 μg/mL.

Series [1] can be described thus: Solubility of the peptides.
The target of the next series is T1, IL-15/IL-15Rα complex (Homo sapiens, UniProt Q13261).
T1 construct: all evaluated peptides recognized IL-15Rα immobilized on the ELISA plate
The series can be described thus: Inhibition of IL-15/IL-15Rα complex formation (ELISA-type test). It counts as binding. As to the method: Once the synthetic peptides were obtained and characterized, their binding capacity to IL-15Rα was determined. This evaluation was carried out by means of an ELISA type test. In addition, the % inhibition of the formation of the IL-15/IL-15Rα complex presented by each peptide was calculated. Both the procedure for the ELISA-type test and the equation used to calculate the % inhibition of the formation of the IL-15/IL-15Rα complex are detailed in the article published by Santos et al in 2012 (Santos A. et al. J. Pept. Sci. 2012; 18: 25-29).

T1 sequence (Q13261 31-205 limits assumed, one chain of several): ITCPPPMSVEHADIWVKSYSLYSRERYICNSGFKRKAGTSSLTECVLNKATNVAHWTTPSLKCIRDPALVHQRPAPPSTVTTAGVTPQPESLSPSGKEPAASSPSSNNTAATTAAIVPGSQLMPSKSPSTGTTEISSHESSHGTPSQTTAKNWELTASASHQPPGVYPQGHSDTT

Turning to `CSCC[C@H](NC(=O)[C@@H](C)NC(=O)[C@@H](NC(=O)[C@@H](NC(=O)[C@@H](N)CCCCN)C(C)C)[C@@H](C)O)C(=O)N[C@@H](CCCCN)C(=O)N[C@H](CS)C(=O)N[C@@H](Cc1ccccc1)C(=O)N[C@@H](CC(C)C)C(=O)N[C@@H](CC(C)C)C(N)=O` [Peptide 15] (H-KVT[dA]MK[dC]FLL-NH2; N-terminus assumed), the “antagonist effect compared with Peptide 1” value in the series with CTLL-2 cells (IL-15-induced CTLL-2 proliferation) is recorded as “equal or less antagonist effect than the original peptide; also recorded: less active than Peptide 1”. This compound also registered an IC50 in the series on CTLL-2 cells of 296 µM.

Compound `CSCC[C@@H](NC(=O)[C@H](C)NC(=O)[C@@H](NC(=O)[C@@H](NC(=O)[C@@H](N)CCCCN)C(C)C)[C@@H](C)O)C(=O)N[C@@H](CCCCN)C(=O)N[C@@H](CS)C(=O)N[C@@H](Cc1ccccc1)C(=O)N[C@@H](CC(C)C)C(=O)N[C@@H](CC(C)C)C(N)=O` [Peptide 6] (H-KVTA[dM]KCFLL-NH2) yielded a concentration for half-maximal inhibition (IC50) in the series with CTLL-2 cells of 292 µM.

The compound `CSCC[C@H](NC(=O)[C@H](C)NC(=O)[C@H](NC(=O)[C@@H](NC(=O)[C@@H](N)CCCCN)C(C)C)[C@H](C)O)C(=O)N[C@@H](CCCCN)C(=O)N[C@@H](CS)C(=O)N[C@@H](Cc1ccccc1)C(=O)N[C@@H](CC(C)C)C(=O)N[C@@H](CC(C)C)C(N)=O` [Peptide 4] (H-KV[dT]AMKCFLL-NH2) gave a half-maximal inhibitory concentration (IC50) in the series with CTLL-2 cells of 159 µM.

On to `CSCC[C@H](NC(=O)[C@H](C)NC(=O)[C@@H](NC(=O)[C@@H](NC(=O)[C@@H](N)CCCCN)C(C)C)[C@@H](C)O)C(=O)N[C@@H](CCCCN)C(=O)N[C@@H](CS)C(=O)N[C@@H](Cc1ccccc1)C(=O)N[C@@H](CC(C)C)C(=O)N[C@H](CC(C)C)C(N)=O` [Peptide 11] (H-KVTAMKCFL[dL]-NH2), for which, in the series on CTLL-2 cells, the IC50 stood at 133 µM.

Regarding “KVTAMKCFLL-NH2 [Peptide 1, reference compound]”, in the series with CTLL-2 cells, the IC50 turned out to be 130 µM.

In the series with CTLL-2 cells, `CSCC[C@H](NC(=O)[C@H](C)NC(=O)[C@@H](NC(=O)[C@@H](NC(=O)[C@@H](N)CCCCN)C(C)C)[C@@H](C)O)C(=O)N[C@@H](CCCCN)C(=O)N[C@@H](CS)C(=O)N[C@@H](Cc1ccccc1)C(=O)N[C@H](CC(C)C)C(=O)N[C@@H](CC(C)C)C(N)=O` [Peptide 10] (H-KVTAMKCF[dL]L-NH2) gave a half-maximal inhibitory concentration (IC50) of 134 µM.

The compound `CSCC[C@H](NC(=O)[C@H](C)NC(=O)[C@@H](NC(=O)[C@@H](NC(=O)[C@@H](N)CCCCN)C(C)C)[C@@H](C)O)C(=O)N[C@@H](CCCCN)C(=O)N[C@H](CS)C(=O)N[C@@H](Cc1ccccc1)C(=O)N[C@@H](CC(C)C)C(=O)N[C@@H](CC(C)C)C(N)=O` [Peptide 8] (H-KVTAMK[dC]FLL-NH2) had a half-inhibitory concentration (IC50) in the series on CTLL-2 cells of 103 µM.

In turn, `CSCC[C@H](NC(=O)[C@H](C)NC(=O)[C@@H](NC(=O)[C@@H](NC(=O)[C@@H](N)CCCCN)C(C)C)[C@@H](C)O)C(=O)N[C@@H](CCCCN)C(=O)N[C@@H](CS)C(=O)N[C@H](Cc1ccccc1)C(=O)N[C@@H](CC(C)C)C(=O)N[C@@H](CC(C)C)C(N)=O` [Peptide 9] (H-KVTAMKC[dF]LL-NH2) displayed an IC50 in the series with CTLL-2 cells of 118 µM.

For the compound `CSCC[C@H](NC(=O)[C@@H](C)NC(=O)[C@@H](NC(=O)[C@@H](NC(=O)[C@H](N)CCCCN)C(C)C)[C@@H](C)O)C(=O)N[C@@H](CCCCN)C(=O)N[C@@H](CS)C(=O)N[C@@H](Cc1ccccc1)C(=O)N[C@@H](CC(C)C)C(=O)N[C@@H](CC(C)C)C(N)=O` [Peptide 13] (H-[dK]VT[dA]MKCFLL-NH2), the IC50 in the series on CTLL-2 cells came out at 29 µM. The solubility result in series [1] was “completely soluble”. Further, the “% inhibition of IL-15/IL-15Rα complex formation” value (“% inhibition” for short) on IL-15/IL-15Rα complex was 89%.

With `CSCC[C@H](NC(=O)[C@H](C)NC(=O)[C@@H](NC(=O)[C@@H](NC(=O)[C@H](N)CCCCN)C(C)C)[C@@H](C)O)C(=O)N[C@@H](CCCCN)C(=O)N[C@@H](CS)C(=O)N[C@@H](Cc1ccccc1)C(=O)N[C@@H](CC(C)C)C(=O)N[C@@H](CC(C)C)C(N)=O` [Peptide 2] (H-[dK]VTAMKCFLL-NH2), the midpoint of inhibition in the series with CTLL-2 cells, the IC50, lay at 100 µM.

For the compound `CSCC[C@H](NC(=O)[C@H](C)NC(=O)[C@@H](NC(=O)[C@H](NC(=O)[C@@H](N)CCCCN)C(C)C)[C@@H](C)O)C(=O)N[C@@H](CCCCN)C(=O)N[C@@H](CS)C(=O)N[C@@H](Cc1ccccc1)C(=O)N[C@@H](CC(C)C)C(=O)N[C@@H](CC(C)C)C(N)=O` [Peptide 3] (H-K[dV]TAMKCFLL-NH2), the half-maximal inhibitory concentration (IC50) with CTLL-2 cells came out at 142 µM.

Regarding `CSCC[C@H](NC(=O)[C@H](C)NC(=O)[C@@H](NC(=O)[C@@H](NC(=O)[C@@H](N)CCCCN)C(C)C)[C@@H](C)O)C(=O)N[C@H](CCCCN)C(=O)N[C@@H](CS)C(=O)N[C@@H](Cc1ccccc1)C(=O)N[C@@H](CC(C)C)C(=O)N[C@@H](CC(C)C)C(N)=O` [Peptide 7] (H-KVTAM[dK]CFLL-NH2), in the series with CTLL-2 cells, the IC50 stood at 168 µM.

Take `CSCC[C@H](NC(=O)[C@@H](C)NC(=O)[C@@H](NC(=O)[C@@H](NC(=O)[C@H](N)CCCCN)C(C)C)[C@@H](C)O)C(=O)N[C@@H](CCCCN)C(=O)N[C@@H](CSSC[C@H](NC(=O)[C@H](CCCCN)NC(=O)[C@H](CCSC)NC(=O)[C@@H](C)NC(=O)[C@@H](NC(=O)[C@@H](NC(=O)[C@H](N)CCCCN)C(C)C)[C@@H](C)O)C(=O)N[C@@H](Cc1ccccc1)C(=O)N[C@@H](CC(C)C)C(=O)N[C@@H](CC(C)C)C(N)=O)C(=O)N[C@@H](Cc1ccccc1)C(=O)N[C@@H](CC(C)C)C(=O)N[C@@H](CC(C)C)C(N)=O` [Peptide 14] (I: H-[dK]VT[dA]MKCFLL-NH2 / II: H-[dK]VT[dA]MKCFLL-NH2; disulfide I:7-II:7): the half-maximal inhibitory concentration (IC50) in the series on CTLL-2 cells stood at 12 µM. In series [1], the solubility result is recorded as “completely soluble”. Also, the “% inhibition” value at IL-15/IL-15Rα complex is given as 92%.

Turning to `CSCC[C@H](NC(=O)[C@@H](C)NC(=O)[C@@H](NC(=O)[C@@H](NC(=O)[C@@H](N)CCCCN)C(C)C)[C@@H](C)O)C(=O)N[C@@H](CCCCN)C(=O)N[C@@H](CS)C(=O)N[C@@H](Cc1ccccc1)C(=O)N[C@@H](CC(C)C)C(=O)N[C@@H](CC(C)C)C(N)=O` [Peptide 5] (H-KVT[dA]MKCFLL-NH2), half-maximal inhibition in the series on CTLL-2 cells (IC50) was put at 28 µM. Moreover, in series [1], the solubility result is recorded as “completely soluble”. For the same compound, the “% inhibition” value on IL-15/IL-15Rα complex worked out at 92%.

In the series with CTLL-2 cells, `CSCC[C@H](NC(=O)[C@@H](C)NC(=O)[C@@H](NC(=O)[C@@H](NC(=O)[C@@H](N)CCCCN)C(C)C)[C@@H](C)O)C(=O)N[C@@H](CCCCN)C(=O)N[C@@H](CSSC[C@H](NC(=O)[C@H](CCCCN)NC(=O)[C@H](CCSC)NC(=O)[C@@H](C)NC(=O)[C@@H](NC(=O)[C@@H](NC(=O)[C@@H](N)CCCCN)C(C)C)[C@@H](C)O)C(=O)N[C@@H](Cc1ccccc1)C(=O)N[C@@H](CC(C)C)C(=O)N[C@@H](CC(C)C)C(N)=O)C(=O)N[C@@H](Cc1ccccc1)C(=O)N[C@@H](CC(C)C)C(=O)N[C@@H](CC(C)C)C(N)=O` [Peptide 12] (I: H-KVT[dA]MKCFLL-NH2 / II: H-KVT[dA]MKCFLL-NH2; disulfide I:7-II:7) gave an IC50 of 8 µM. In series [1], the solubility result was “completely soluble”. The “% inhibition” value on IL-15/IL-15Rα complex worked out at 96%.
